“And” between values parts separate entries of the source, which are not always exact repeats. Identical values can stand only once. Like-named read-outs stand apart in the source and are kept apart here.
Key:
Format in all cases: biochemical
human CYP1A2 = target: T1, human CYP1A2 (Homo sapiens, UniProt P05177); assay: CYP1A2 inhibition, 7-ethoxyresorufin fluorescence assay
T1 construct: purchased Corning Inc
T1 sequence (P05177 1-516): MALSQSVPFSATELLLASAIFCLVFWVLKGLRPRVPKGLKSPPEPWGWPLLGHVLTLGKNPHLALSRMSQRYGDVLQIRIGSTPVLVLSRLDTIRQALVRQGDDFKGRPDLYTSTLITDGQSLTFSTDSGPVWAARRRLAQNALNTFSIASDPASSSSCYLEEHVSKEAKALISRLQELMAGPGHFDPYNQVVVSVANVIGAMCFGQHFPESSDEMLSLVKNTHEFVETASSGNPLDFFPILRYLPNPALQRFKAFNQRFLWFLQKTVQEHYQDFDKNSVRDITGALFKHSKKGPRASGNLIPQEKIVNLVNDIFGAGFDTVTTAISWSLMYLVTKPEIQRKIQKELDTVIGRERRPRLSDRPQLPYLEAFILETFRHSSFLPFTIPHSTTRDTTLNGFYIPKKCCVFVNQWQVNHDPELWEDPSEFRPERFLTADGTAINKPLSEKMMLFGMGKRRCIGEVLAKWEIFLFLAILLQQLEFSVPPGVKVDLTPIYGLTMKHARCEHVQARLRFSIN
Experimental: Inhibition of CYP1A2 activity was determined with commercial heterologously expressed human CYP1A2 enzyme (Corning Inc., Corning, NY, USA) as described earlier (Korhonen et al., [2005]). The metabolic activity was not in the scope of this particular study. The assay was adapted to the 96-well plate format. In each well, a 150 μL incubation volume contained 100 mM Tris-HCl buffer (pH 7.4), 4.2 mM MgCl2,1 μM 7-ethoxyresorufin, 0.5 pmol of cDNA expressed CYP1A2, […] inhibitor, and a NADPH-generating system. All inhibitors were dissolved in ethanol, and the final concentration of ethanol was 2% in all incubations. The reaction was initiated by adding the NADPH-regenerating system after a 10 min preincubation at 37°C, and after a 20 min incubation, the reaction was terminated by the addition of 110 μL of 80% acetonitrile/20% 0.5 M Tris base. The formed fluorescence was measured with a Victor2 plate counter (Perkin-Elmer Life Sciences Wallac, Turku, Finland) at 570 nm excitation and 616 nm emission.

recombinant human HSD1 = target: T2, recombinant human HSD1 (Homo sapiens, UniProt P14061); assay: HSD1 inhibition by HPLC with tritium labeled estrone/estradiol; conditions: for inhibition at 1 µM / HSD1 inhibition %: 1 μM
T2 construct: made in house; host or cells: Sf9 insect cells
T2 sequence (P14061 1-328): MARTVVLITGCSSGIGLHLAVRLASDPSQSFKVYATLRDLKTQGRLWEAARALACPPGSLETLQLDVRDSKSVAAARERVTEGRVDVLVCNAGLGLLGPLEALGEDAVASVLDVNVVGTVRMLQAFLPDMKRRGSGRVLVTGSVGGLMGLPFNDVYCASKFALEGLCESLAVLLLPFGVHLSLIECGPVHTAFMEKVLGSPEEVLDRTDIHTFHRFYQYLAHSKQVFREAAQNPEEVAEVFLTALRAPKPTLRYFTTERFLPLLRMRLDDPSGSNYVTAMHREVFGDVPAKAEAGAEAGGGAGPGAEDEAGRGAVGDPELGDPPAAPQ

MAO-A = target: T3, MAO-A (Homo sapiens, UniProt P21397); assay: continuous spectrophotometric MAO-A inhibition assay; conditions: for MAO-A inhibition %: 100 µM, 1h
T3 construct: purchased Sigma-Aldrich
T3 sequence (P21397 1-527): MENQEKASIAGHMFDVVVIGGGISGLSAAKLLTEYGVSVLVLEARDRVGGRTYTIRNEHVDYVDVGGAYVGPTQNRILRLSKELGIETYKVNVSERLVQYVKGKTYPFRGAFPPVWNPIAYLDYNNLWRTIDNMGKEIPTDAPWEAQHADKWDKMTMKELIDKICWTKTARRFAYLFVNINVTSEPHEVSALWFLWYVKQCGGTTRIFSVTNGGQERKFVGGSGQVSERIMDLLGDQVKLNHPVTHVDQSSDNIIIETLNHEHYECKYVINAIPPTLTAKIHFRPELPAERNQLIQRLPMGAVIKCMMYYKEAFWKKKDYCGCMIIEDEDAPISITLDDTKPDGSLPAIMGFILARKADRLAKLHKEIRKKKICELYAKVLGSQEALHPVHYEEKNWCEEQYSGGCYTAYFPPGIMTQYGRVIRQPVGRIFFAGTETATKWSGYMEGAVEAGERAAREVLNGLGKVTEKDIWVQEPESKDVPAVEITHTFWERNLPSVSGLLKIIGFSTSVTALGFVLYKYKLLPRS
Experimental: (§1) Both monoamine oxidase A (MAO-A) and B (MAO-B) protein and the reagents for the chromogenic solution of vanillic acid (4-hydroxy-3-methoxylbenzoic acid, 97% purity), 4-aminoantipyrine (reagent grade), horseradish peroxidase and the substrate tyramine hydrochloride (minimum 99% purity) as well as the potassium phosphate buffer, which was prepared using potassium phosphate dibasic trihydrate (≥99% ReagentPlus™) and potassium phosphate monobasic (minimum 98% purity, molecular biology tested), were purchased from Sigma-Aldrich (St. Louis, MO, USA) for the spectrophotometric assay.
(§2) The protocol for continuous spectrophotometric assay (Holt et al., [1997]) was followed in the activity measurements. The assay was performed in 0.2 M potassium phosphate buffer pH 7.6 on 96-well plates (Nunc™ 96F microwell plate without a lid, Nunc A/S, Roskilde, DK) in 200 μl total volume. The chromogenic solution containing 1 mM vanillic acid, 500 μM 4-aminoantipyrine and 8 U/ml horseradish peroxidase in 0.2 M potassium phosphate buffer pH 7.6 was mixed anew for each measurement. 5 mM tyramine solution was used as the substrate. In order to determine the activity of both MAO-B and MAO-A, concentration series as duplicates were prepared. The protein was combined with the chromogenic solution and incubated 30 min at 37°C. The background signal was measured using multilabel reader (Victor^TM X4, 2030 Multilabel Reader, PerkinElmer, Waltham, MA, USA) at A490 before reaching the total 200 μl volume by adding 20 μl of tyramine to final concentration of 0.5 mM on the plate. As a result, the final concentration of the chromogenic solution on the plate was 250 μM vanillic acid, 125 μM 4-aminoantipyrine and 2 U/ml horseradish peroxide. After adding the substrate, the plates were measured 300 times every 15 s using 1 s exposure time. The device was set to 37°C for the duration of the experiment.
(§3) The experiment conditions should produce absorbance change of ~0.35 (Holt et al., [1997]). […] The same wide panel of coumarin derivatives was additionally used to analyze the MAO-A inhibition at 100 μM (Table 1, Supplementary Table S1).
(§4) The measured data was then fitted on a curve using non-linear regression with the equation for log[inhibitor] vs. response. The IC50 values were therefore determined based on the curve fit. The fitted curves are shown on –log scale in Supplementary Figures S1, S2.

MAO-B = target: T4, MAO-B (Homo sapiens, UniProt P27338); assay: continuous spectrophotometric MAO-B inhibition assay; conditions: for LiPE: LiPE = pIC50 - QPlogPo/w, new analogs and pargyline; for IC50: duplicates; for MAO-B inhibition %: 10 µM, 2h
T4 construct: purchased Sigma-Aldrich
T4 sequence (P27338 1-520): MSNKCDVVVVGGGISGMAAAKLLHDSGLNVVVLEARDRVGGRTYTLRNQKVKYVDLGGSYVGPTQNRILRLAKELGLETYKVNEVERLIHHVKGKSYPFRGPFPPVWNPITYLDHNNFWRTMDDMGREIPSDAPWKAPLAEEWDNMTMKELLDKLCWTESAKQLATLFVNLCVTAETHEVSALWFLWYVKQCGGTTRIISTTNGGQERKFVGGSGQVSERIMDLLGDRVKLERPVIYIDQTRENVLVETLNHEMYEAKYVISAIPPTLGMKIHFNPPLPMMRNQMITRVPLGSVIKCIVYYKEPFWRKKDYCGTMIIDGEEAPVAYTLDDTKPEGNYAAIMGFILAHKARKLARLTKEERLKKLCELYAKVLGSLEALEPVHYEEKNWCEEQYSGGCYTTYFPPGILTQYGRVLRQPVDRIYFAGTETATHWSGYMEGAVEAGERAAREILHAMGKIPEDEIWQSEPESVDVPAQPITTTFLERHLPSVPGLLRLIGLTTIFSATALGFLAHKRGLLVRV
Experimental: as §1, §2, §3, §4

[1] = dilution series 50 μM to 1 nM, read-out: MAO-B inhibition IC50

| IC50 (human CYP1A2) | inhibition at 1 µM (recombinant human HSD1) | inhibition at 100 µM (MAO-A; 100 μM) | inhibition at 10 µM (MAO-B) | LiPE (MAO-B) | IC50 (MAO-B; [1]) | HSD1 inhibition % (recombinant human HSD1) | MAO-A inhibition % (MAO-A) | MAO-B inhibition % (MAO-B) | MAO-B inhibition (in words) (MAO-B) | SMILES | HSD1 inhibition (in words) (recombinant human HSD1) | MAO-A inhibition (in words) (MAO-A; 100 μM) | IC50 (MAO-B; MAO-B inhibition IC50, dilution series 50 μM to 1 nM) |
| --- | --- | --- | --- | --- | --- | --- | --- | --- | --- | --- | --- | --- | --- |
| 15 µM | 0% | 10.1% | 97.6% | 3.25 | 0.4 µM |  |  |  |  | COc1ccc(-c2cc3cc(OC)ccc3oc2=O)cc1 [derivative 10, 6-methoxy-3-(4-methoxyphenyl)-2H-chromen-2-one] |  |  |  |
| 370 µM | 15% | 0% | 85.4% | 3.27 | 0.866 µM |  |  |  |  | CC(=O)Oc1ccc2cc(-c3ccc(N(C)C)cc3)c(=O)oc2c1 [derivative 19, 3-(4-(dimethylamino)phenyl)-2-oxo-2H-chromen-7-yl acetate] |  |  |  |
| 480 µM |  |  |  |  |  | 0.00% | 0.00% | 39.78% |  | COc1ccc(-c2cc3ccc(OC)cc3oc2=O)cc1 [derivative 37] |  |  |  |
|  | 21% | 0% | 99.9% | 4.25 | ~0.189 µM and 0.189 µM |  |  |  |  | COc1ccc2cc(-c3ccc(OC(C)=O)c(F)c3)c(=O)oc2c1 [derivative 6, 2-fluoro-4-(7-methoxy-2-oxo-2H-chromen-3-yl)phenyl acetate] |  |  |  |
| 30 µM |  |  |  |  |  | 0.30% | 0.00% | 46.01% |  | COc1cc(OC)cc(-c2cc3cc(Cl)cc(Cl)c3oc2=O)c1 [derivative 34] |  |  |  |
| 65 µM |  |  |  |  |  | 1.50% | 0.00% | 8.16% | activity is lost | O=c1oc2c(CN3CCCCC3)c(O)ccc2cc1-c1ccccc1 [derivative 50] |  |  |  |
| 87.5 µM | 1% |  | 75.8% | 2.73 | 8.48 µM |  |  |  |  | COc1ccc(-c2cc3cc(OC(C)=O)ccc3oc2=O)cc1 [derivative 14, 3-(4-methoxyphenyl)-2-oxo-2H-chromen-6-yl acetate] |  |  |  |
| 800 µM |  |  |  |  |  |  | 0.00% | 47.77% |  | COc1ccc(-c2cc3cc(Cl)cc(Cl)c3oc2=O)cc1 [derivative 32] |  |  |  |

Further lines, the compound ahead of its results:

| SMILES | IC50 (human CYP1A2) | inhibition at 1 µM (recombinant human HSD1) | inhibition at 100 µM (MAO-A; 100 μM) | inhibition at 10 µM (MAO-B) | LiPE (MAO-B) | IC50 (MAO-B; [1]) | HSD1 inhibition % (recombinant human HSD1) | MAO-A inhibition % (MAO-A) | MAO-B inhibition % (MAO-B) | MAO-B inhibition (in words) (MAO-B) | HSD1 inhibition (in words) (recombinant human HSD1) | MAO-A inhibition (in words) (MAO-A; 100 μM) | IC50 (MAO-B; MAO-B inhibition IC50, dilution series 50 μM to 1 nM) |
| --- | --- | --- | --- | --- | --- | --- | --- | --- | --- | --- | --- | --- | --- |
| COc1ccc2oc(=O)c(-c3ccc(OC(F)(F)F)cc3)cc2c1 [derivative 4, 6-methoxy-3-(4-(trifluoromethoxy)phenyl)-2H-chromen-2-one] | 7 µM | 0% | 0% | 102% | 2.28 | 0.317 µM |  |  |  |  |  |  |  |
| CN(C)c1ccc(-c2cc3ccc(O)cc3oc2=O)cc1 [derivative 17, 3-(4-(dimethylamino)phenyl)-7-hydroxy-2H-chromen-2-one] | 35 µM | 5% | 4.74% | 90.1% | 3.62 | 0.384 µM |  |  |  |  |  |  |  |
| CC(=O)Oc1ccc2cc(-c3ccc(OC(F)(F)F)cc3)c(=O)oc2c1 [derivative 3, 2-oxo-3-(4-(trifluoromethoxy)phenyl)-2H-chromen-7-yl acetate] | 280 µM | 0% | 22% | 100% | 3.52 | ~0.141 µM and 0.141 µM |  |  |  |  |  |  |  |
| C#CCN(C)Cc1ccccc1 [pargyline, reference compound] |  |  |  | 102% |  |  |  |  |  |  |  |  |  |
| CC(=O)Oc1cccc2cc(-c3ccc(F)cc3)c(=O)oc12 [derivative 47] | 17 µM |  |  |  |  |  | 0.00% | 22.33% | 15.81% |  |  |  |  |
| COc1ccc2oc(=O)c(-c3ccc(C(F)(F)F)cc3)cc2c1 [derivative 1, 6-methoxy-3-(4-(trifluoromethyl)phenyl)-2H-chromen-2-one] | 124 µM | 0% | 0% | 99.5% | 3.17 |  |  |  |  |  | does not inhibit HSD1 | does not produce MAO-A inhibition | ~0.056 µM and 0.05 to 0.06 µM and 0.056 µM |

— PMC5840146, “Structure-Activity Relationship Analysis of 3-Phenylcoumarin-Based Monoamine Oxidase B Inhibitors” (Frontiers in Chemistry, 2018)
